From US7547676B2, “Antagonist peptides to the C5A chemotactic function of vitamin D binding protein” (The Research Foundation of State University of New York, priority 2004, dated 2009)

How the values were obtained:
DBP = target: T1, DBP (Homo sapiens, UniProt P02774); settings: Cooke and Haddad, 1989; cited from earlier work
T1 sequence (P02774 17-474): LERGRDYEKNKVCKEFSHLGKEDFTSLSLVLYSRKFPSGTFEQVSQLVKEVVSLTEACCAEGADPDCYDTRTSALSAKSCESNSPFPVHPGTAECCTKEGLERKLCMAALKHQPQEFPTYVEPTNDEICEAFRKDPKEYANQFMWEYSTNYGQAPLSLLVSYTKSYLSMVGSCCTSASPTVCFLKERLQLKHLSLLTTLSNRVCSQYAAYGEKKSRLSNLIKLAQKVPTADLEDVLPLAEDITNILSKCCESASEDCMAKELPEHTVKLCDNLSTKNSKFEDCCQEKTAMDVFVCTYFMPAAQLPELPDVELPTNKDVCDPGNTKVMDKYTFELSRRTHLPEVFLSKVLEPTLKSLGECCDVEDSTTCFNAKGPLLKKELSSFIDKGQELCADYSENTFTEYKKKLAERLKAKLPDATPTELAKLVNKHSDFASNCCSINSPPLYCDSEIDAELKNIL

neutrophils [1] = assay: Neutrophil chemotaxis assay, C5a co-chemotactic activity of DBP; type: cell-based, human; parameters: effect on co-chemotactic activity of DBP, dose-response: dose or concentration left out as unconfirmed
Text: Isolation of human neutrophils Neutrophils, serum, and plasma were isolated from the venous blood of healthy, medication-free, paid volunteers who gave informed consent. The Institutional Review Board of Stony Brook University approved this procedure. These procedures have been described in detail previously (Kew et al., 1995a).
Neutrophil chemotaxis assay Cell movement was quantitated using a 48 well microchemotaxis chamber (Neuroprobe, Cabin John, Md.) and 5.0 μm pore size cellulose nitrate filters (purchased from Neuroprobe) as previously described (Kew et al., 1995a). Cell suspensions and chemotactic factors were prepared and/or diluted in the chemotaxis assay buffer (Hank's balanced salt solution supplemented with 10 mM HEPES (pH 7.4) and 1% bovine serum albumin). Cell movement was quantitated microscopically by measuring the distance in microns (μm) that the leading front of cells had migrated into the filter according to the method described by Zigmond and Hirsch (1973). In each experiment, five fields per duplicate filter were measured at 400× magnification.

[2] = test system: Alkaline phosphatase activity on the plasma membrane of viable neutrophils; assay: Neutrophil alkaline phosphatase assay (DiFMUP); type: cell-based, human; settings: 5×10^6 cells pretreated with 10 nM 1,25(OH)2D3 or 10 μM SOV; untreated 11,107±1335 units
Experimental: Neutrophil alkaline phosphatase assay Alkaline phosphatase activity on the plasma membrane of viable neutrophils was measured using the fluorescent substrate 6,8-difluoro-4-methylumbelliferyl phosphate (DiFMUP) and the EnzChek Phosphatase Assay Kit (Molecular Probes, Eugene, Oreg.). Neutrophils (5×10^6 cells) were suspended in 50 μl of 0.1M sodium acetate (pH 5.0) and were immediately added to microtiter plates containing 50 μl of 0.2mM DiFMUP substrate and incubated for 5 min at 22° C. in the dark. A standard curve was generated using known amounts of the fluorescent compound 6,8-difluoro-7-hydroxy-4-methylcoumarin. Fluorescence was measured at 358 nm excitation and 455 nm emission using a SpectraMax M2 microtiter plate reader (Molecular Devices, Sunnydale, Calif.).

neutrophils [3] = assay: Neutrophil viability; type: cell-based, human; settings: 10 μM SOV

SMILES	affinity for DBP relative to 1,25(OH)2D3 (DBP) [fold]	effect on co-chemotactic activity of DBP, dose-response (neutrophils [1]; bound to DBP)	effect on co-chemotactic activity of DBP (neutrophil chemotaxis toward C5a) (neutrophils [1]; ligand bound to DBP, 1,25(OH)2D3 100 nM)	neutrophil AP activity [2] [units]	cell viability (neutrophils [3])	cells ability to migrate towards C5a plus DBP (neutrophils [1]; SOV alone)	reversal of the inhibitory effect of 1,25(OH)2D3 on the C5a co-chemotactic activity of DBP (neutrophils [1]; neutrophils pretreated with 10 μM SOV)
C=C1CC[C@H](O)C/C1=C/C=C1\CCC[C@]2(C)[C@@H]([C@H](C)CCCC(C)(C)O)CC[C@@H]12 [25(OH)D3]	10	no effect on co-chemotactic activity	did not alter its ability to enhance neutrophil chemotaxis toward C5a				
[Na+].[Na+].[Na+].[O]=[V]([O-])([O-])[O-] [SOV, sodium orthovanadate]				667±111	did not alter cell viability	no effect	completely reverses the inhibitory effect
